Measurements: patent US20070128217A1 (priority 2003, published 2007)

What was measured:
[1] = tested on: antibodies in sera from SARS patients (sera 1a, 1b, 2, 6, 37, 62, London, SARS-yellow, SARS-green); type: binding, human; design: Binding of serum 6 to linear peptides of protein X1 of SARS-CoV Urbani / Binding of serum 37 to linear peptides of protein X1 of SARS-CoV Urbani / Binding of serum 6 to looped/cyclic peptide (PEPSCAN-ELISA) / Binding of serum 37 to looped/cyclic peptide (PEPSCAN-ELISA) / Binding of serum 37 to looped/cyclic peptides of protein X1 of SARS-CoV Urbani / Binding of serum 6 to linear peptides of protein X2 / Binding of serum 37 to linear peptides of protein X2 / Binding of serum 37 to looped/cyclic peptides of protein X2 of SARS-CoV Urbani / Binding of serum 6 to linear peptides of protein M of SARS-CoV Urbani / Binding of serum 37 to linear peptides of protein M of SARS-CoV Urbani / Binding of serum 6 to looped/cyclic peptides of protein M of SARS-CoV Urbani / Binding of serum 37 to looped/cyclic peptides of protein M of SARS-CoV Urbani / Binding of serum 6 to linear peptides of protein X3 of SARS-CoV Urbani / Binding of serum 37 to linear peptides of protein X3 of SARS-CoV Urbani / Binding of serum 37 to looped/cyclic peptides of protein X3 of SARS-CoV Urbani / Binding of serum 6 to linear peptides of protein X4 of SARS-CoV Urbani / Binding of serum 37 to linear peptides of protein X4 of SARS-CoV Urbani / Binding of serum 37 to looped/cyclic peptides of protein X4 of SARS-CoV Urbani / Binding of serum 6 to linear peptides of protein X5 of SARS-CoV Urbani / Binding of serum 37 to linear peptides of protein X5 of SARS-CoV Urbani / Binding of serum 37 to looped/cyclic peptides of protein X5 of SARS-CoV Urbani / Binding of serum 6 to linear peptides of protein N of SARS-CoV Urbani / Binding of serum 37 to linear peptides of protein N of SARS-CoV Urbani / Binding of serum 6 to linear peptide (PEPSCAN-ELISA) / Binding of serum 1a to looped/cyclic peptides of protein N of SARS-CoV Urbani / Binding of serum 1b to looped/cyclic peptides of protein N of SARS-CoV Urbani / Binding of serum 2 to looped/cyclic peptides of protein N of SARS-CoV Urbani / Binding of serum 6 to looped/cyclic peptides of protein N of SARS-CoV Urbani / Binding of serum 37 to looped/cyclic peptides of protein N of SARS-CoV Urbani / Binding of serum 62 to looped/cyclic peptides of protein N of SARS-CoV Urbani / Binding of serum London to looped/cyclic peptides of protein N of SARS-CoV Urbani / Binding of serum SARS-green to looped/cyclic peptides of protein N of SARS-CoV Urbani: unit not given here
[2] = tested on: control sera (pooled serum of ten healthy LUMC hospital workers; commercial negative donor pooled serum from the Dutch bloodbank); type: binding, human; design: Binding of Control serum LUMC to linear peptides / Binding of Control serum Blood-bank to linear peptides / Binding of Control serum LUMC to looped peptides / Binding of Control Serum Blood-Bank to Looped peptides / Binding of Control serum LUMC to linear peptides of the protein M of SARS-CoV Urbani / Binding of Control serum Blood-bank to linear peptides of the protein M of SARS-CoV Urbani / Binding of Control serum LUMC to looped peptides of the protein M of SARS-CoV Urbani / Binding of Control Serum Blood-Bank to Looped peptides of the protein M of SARS-CoV Urbani: unit not given here
[3] = tested on: rabbit serum obtained by immunizing a rabbit with the SARS-CoV strain Frankfurt 1; type: binding; design: Binding of a rabbit serum to linear peptides / Binding of a rabbit serum to looped peptides / Rabbit serum linear peptides / Rabbit serum looped peptides / Binding of a rabbit serum to linear peptides of protein N of SARS-CoV Urbani (Rabbit serum linear peptides) / Binding of a rabbit serum to looped/cyclic peptides of protein N of SARS-CoV Urbani (Rabbit serum looped peptides): unit not given here

| Sequence | Binding of serum 1a to linear peptides of protein X1 of SARS-CoV Urbani [1] | Binding of serum 1a to looped/cyclic peptide (PEPSCAN-ELISA) [1] | Binding of serum 1b to linear peptides of protein X1 of SARS-CoV Urbani [1] | Binding of serum 1b to looped/cyclic peptide (PEPSCAN-ELISA) [1] | Binding of serum 2 to linear peptides of protein X1 of SARS-CoV Urbani [1] | Binding of serum 2 to looped/cyclic peptide (PEPSCAN-ELISA) [1] | Binding of serum 6 to linear peptides of protein X1 of SARS-CoV Urbani [1] | Binding of serum 6 to looped/cyclic peptide (PEPSCAN-ELISA) [1] | Binding of serum 37 to linear peptides of protein X1 of SARS-CoV Urbani [1] | Binding of serum 37 to looped/cyclic peptide (PEPSCAN-ELISA) [1] | Binding of serum 62 to linear peptides of protein X1 of SARS-CoV Urbani [1] | Binding of serum 62 to looped/cyclic peptide (PEPSCAN-ELISA) [1] | Binding of serum London to linear peptides of protein X1 of SARS-CoV Urbani [1] | Binding of serum London to looped/cyclic peptide (PEPSCAN-ELISA) [1] | Binding of serum SARS-green to linear peptides of protein X1 of SARS-CoV Urbani [1] | Binding of serum SARS-green to looped/cyclic peptide (PEPSCAN-ELISA) [1] | Binding of Control Serum Blood-Bank to Looped peptides [2] | Binding of Control serum Blood-bank to linear peptides [2] | Binding of Control serum LUMC to linear peptides [2] | Binding of Control serum LUMC to looped peptides [2] | also measured |
| --- | --- | --- | --- | --- | --- | --- | --- | --- | --- | --- | --- | --- | --- | --- | --- | --- | --- | --- | --- | --- | --- |
| QCINACRIIMRCWLC | 0.8 | 0.6 | 0.6 | 0.4 | 0.5 | 0.6 | 0.8 | 0.8 | 0.7 | 0.6 | 0.7 | 0.7 | 0.4 | 1.4 | 0.2 | 0.2 | 0.6 | 0.9 | 0.7 | 0.7 | Binding of serum SARS-yellow to linear peptides of protein X1 of SARS-CoV Urbani [1]: 0.3; Binding of serum SARS-yellow to looped/cyclic peptide (PEPSCAN-ELISA) [1]: 0.4; Recognition of the peptide by the rabbit serum [3]: recognized |
| SVSPKLFIRQEEVQQ | – | – | – | – | – | – | – | – | – | – | – | – | – | – | – | – | 0.4 | 0.6 | 0.3 | 0.7 | Binding of serum 1a to linear peptides of protein X4 of SARS-CoV Urbani [1]: 0.7; Binding of serum 1a to looped/cyclic peptides of protein X4 of SARS-CoV Urbani [1]: 0.7; Binding of serum 1b to linear peptides of protein X4 of SARS-CoV Urbani [1]: 0.5; Binding of serum 1b to looped/cyclic peptides of protein X4 of SARS-CoV Urbani [1]: 0.6; Binding of serum 2 to linear peptides of protein X4 of SARS-CoV Urbani [1]: 0.3; Binding of serum 2 to looped/cyclic peptides of protein X4 of SARS-CoV Urbani [1]: 0.6; Binding of serum 6 to linear peptides of protein X4 of SARS-CoV Urbani [1]: 0.5; Binding of serum 6 to looped/cyclic peptides of protein X4 of SARS-CoV Urbani [1]: 0.4; Binding of serum 37 to linear peptides of protein X4 of SARS-CoV Urbani [1]: 0.7; Binding of serum 37 to looped/cyclic peptides of protein X4 of SARS-CoV Urbani [1]: 0.7; Binding of serum 62 to linear peptides of protein X4 of SARS-CoV Urbani [1]: 0.7; Binding of serum 62 to looped/cyclic peptides of protein X4 of SARS-CoV Urbani [1]: 0.6; Binding of serum London to linear peptides of protein X4 of SARS-CoV Urbani [1]: 0.6; Binding of serum London to looped/cyclic peptides of protein X4 of SARS-CoV Urbani [1]: 0.3; Binding of serum SARS-green to linear peptides of protein X4 of SARS-CoV Urbani [1]: 0.4; Binding of serum SARS-green to looped/cyclic peptides of protein X4 of SARS-CoV Urbani [1]: 0.7; Binding of serum SARS-yellow to linear peptides of protein X4 of SARS-CoV Urbani [1]: 0.3; Binding of serum SARS-yellow to looped/cyclic peptides of protein X4 of SARS-CoV Urbani [1]: 0.4; Rabbit serum linear peptides [3]: 0.4; Rabbit serum looped peptides [3]: 0.3 |
| FLQCINACRIIMRCW | 0.8 | 0.6 | 0.6 | 0.4 | 0.6 | 0.5 | 0.7 | 0.7 | 0.7 | 0.6 | 0.6 | 0.6 | 0.3 | 1.0 | 0.3 | 0.2 | 0.6 | 0.8 | 0.9 | 0.6 | Binding of serum SARS-yellow to linear peptides of protein X1 of SARS-CoV Urbani [1]: 0.4; Binding of serum SARS-yellow to looped/cyclic peptide (PEPSCAN-ELISA) [1]: 0.6; Binding of a rabbit serum to linear peptides [3]: 0.1; Binding of a rabbit serum to looped peptides [3]: 0.8 |
